Here are results for 13 compounds from paper PMC9738062, “Selectively Halogenated Flavonolignans—Preparation and Antibacterial Activity” (International Journal of Molecular Sciences, 2022).

Test [1] can be described thus: Ferric reducing antioxidant power (FRAP). As to conditions: Fe2+ equivalents. As for the experimental part: To further elucidate how halogenation affects other properties of the flavonoids studied, their 2,2′-azino-bis-(3-ethylbenzothiazoline-6-sulfonic acid) cation (ABTS) and 1,1-diphenyl-2-picrylhydrazyl (DPPH) radical scavenging, the Folin–Ciocalteu reagent (FCR) reducing, the ferric-reducing antioxidant power (FRAP), and the anti-lipoperoxidation activities were evaluated by in vitro methods (Supplementary Information Tables S1 and S2).
The antiradical activity was evaluated by the ability to scavenge ABTS and DPPH radicals. Reducing capacity was assessed by the ability to reduce the Folin–Ciocalteu reagent (FCR) and ferric ions (FRAP). The ability to inhibit lipid peroxidation of pooled male rat microsomal liver membranes induced by tert-butyl hydroperoxide was also evaluated and the results were expressed as IC50 values.

The test system of test [2] is lipopolysaccharide-stimulated macrophages (RAW 264.7). Description: Inhibition of nitric oxide production (Griess reagent). Conditions: Mus musculus, RAW264.7; LPS 100 ng/mL, 24 h; highest tested concentration 100 µM; read-out: NO Production IC50. It is filed as cell-based, murine. As for the experimental part: The anti-inflammatory activity of the tested flavonolignans was determined as the ability to reduce nitric oxide production by murine macrophages (RAW 264.7) stimulated by bacterial lipopolysaccharides, as previously described. […] For the experiment, 1 × 10^6 cells/mL was seeded into the 96-well plate (100 µL/well). […] After 24 h, the medium was mixed with Griess reagent (0.04 g/mL), prepared freshly in deionized water at the ratio of 1:1. The absorbance was measured after 15 min at 540 nm by the SpectraMax i3x microplate reader. Cell viability was determined by resazurin assay.
Background: The Griess reaction detects nitrite, a stable product of nitric oxide.

For test [3], the system named is human dermal fibroblasts (HDF). Nature of the test: Cytotoxicity (resazurin assay, 72 h). As to conditions: Fibroblast. It is filed as cell-based. As for the experimental part:
(§1) The cytotoxicity of flavonoids and their halogenated derivatives was determined as their ability to decrease the viability of human dermal fibroblasts (HDF) and doxorubicin-resistant human ovarian carcinomas (HOC/DOX). Both cell lines were cultivated in Dulbecco’s Modified Eagle’s Medium supplemented with fetal bovine serum (FBS, 10% v/v) and 1 × antibiotic antimycotic solution and incubated at 37 °C in the atmosphere of 5% CO2. The experiment was performed according to a previously published method. Briefly, 1 × 10^5 cells/mL were seeded into a 96-well plate (100 µL/well). After 24 h, flavonoids and their derivatives were administered at the concentration range of 31.25–500 µM. After 72 h, the viability was determined by resazurin assay (0.03 mg/mL of resazurin in PBS), where the fluorescence was measured after 2 h of incubation by the SpectraMax i3x microplate reader at a wavelength of 560/590 nm (excitation/emission). The concentration inhibiting half of the population (IC50) was determined using nonlinear regression in GraphPad Prism software. The selectivity index was calculated as the ratio between the IC50 for HDF (control, non-cancerous cells) and the IC50 for HOC/DOX (cancer cells).
On the technique in general: Alamar Blue is a resazurin reagent that responds to reducing activity.

The subject of test [4] is doxorubicin-resistant human ovarian carcinoma (HOC/DOX). Description: Cytotoxicity (resazurin assay, 72 h). It is filed as cell-based. Conditions: for IC50: Homo sapiens, 72 h, resazurin assay; for SI (selectivity index): ratio IC50 for HDF / IC50 for HOC/DOX. Here is the method: as §1
In test [5] the test system is multidrug-resistant P. aeruginosa. Description: Sensitization of antibiotic-resistant bacteria (compound plus breakpoint antibiotic concentration). For Effect on viability in combination with imipenem: key: -: no effect (100% viability) was observed up to the highest flavonolignan concentration tested (>40 µM); reversion of resistance: the compound reversed the resistant phenotype to a sensitive one. It is filed as cell-based, Pseudomonas aeruginosa. As to conditions: for Effect on viability in combination with colistin: colistin 2 mg/L; for Effect on viability in combination with colistin / Effect on viability in combination with imipenem: flavonoid 40 µM, 24 h; for Effect on viability in combination with imipenem: imipenem 4 mg/L. As for the experimental part: Clinically relevant antibiotics were selected for sensitization testing according to the European Committee on Antimicrobial Susceptibility Testing (EUCAST). Neither colistin and imipenem at breakpoint concentrations (according to EUCAST, […] and […]) affected the growth of the multidrug-resistant clinical strain of P. aeruginosa. Similarly, neither chloramphenicol and gentamicin at breakpoint concentrations ([…], respectively) affected the multidrug-resistant clinical strain of S. aureus. Flavonoids and their derivatives (1–40 µM) were used in combination therapy, along with the breakpoint concentration of antibiotics. After co-incubation, the minimum inhibitory concentration of flavonoids inhibiting the visible growth of bacteria was determined (Table 2).
Clinical isolates of P. aeruginosa and S. aureus were obtained from the General University Hospital in Prague (Prague, Czech Republic). P. aeruginosa was resistant to ciprofloxacin, oxacillin, ticarcillin, colistin, gentamicin, and imipenem. S. aureus was resistant to ciprofloxacin, gentamicin, erythromycin, chloramphenicol, clindamycin, oxacillin, cefotaxime, and vancomycin. Bacteria were cultivated in Mueller–Hinton broth (MH broth, Merck). The susceptibility of the bacteria was evaluated by the minimum inhibitory concentrations (MIC). The MIC of derivatives in the presence of the antibiotic cut-off concentration was determined according to ISO 20776-1: 2020. The antibiotic cut-off concentration was chosen according to the European Committee on Antimicrobial Susceptibility Testing (EUCAST, Clinical breakpoints—bacteria (ver. 11.0), 1 January 2021). The 40 µM concentration of the derivatives was chosen as the highest concentration for the tests. Cell viability was determined by measuring absorbance (A590 nm) after 24 h incubation at 37 °C, 150 rpm.

For orientation: IC50 means the concentration needed to halve the response being measured. For `COc1cc([C@H]2Oc3cc([C@H]4Oc5c(Br)c(O)c(Br)c(O)c5C(=O)[C@@H]4O)ccc3O[C@@H]2CO)cc(Br)c1O` [compound 21, 6,8,21-tribromosilybin A], in test [1], the “FRAP [Fe2+eq]” value is given as 0.079 ± 0.002 Fe2+eq. Moreover, in test [2], the IC50 is 70.4 ± 1.7 µM. In test [3], it took 75 ± 2.4 µM to reach half-maximal inhibition (IC50). Moreover, in test [4], inhibition was half-maximal at 201 µM (IC50) and the “SI (selectivity index)” value is on record as 0.37. Moreover, in test [5], the “Effect on viability in combination with colistin” value (“Effect … with colistin” for short) is recorded as “-” and the “Effect on viability in combination with imipenem” value (“Effect … with imipenem” for short) was “-”.
Consider `O=C1c2c(cc(O)c(Br)c2O)O[C@H](c2ccc(O)c(O)c2)[C@H]1O` [compound 7, 6-Bromotaxifolin], for which the “FRAP [Fe2+eq]” value in test [1] came to 1.33 ± 0.03 Fe2+eq. Also, the IC50 in test [2] came to 78.4 ± 7.8 µM. The same compound had an IC50 in test [3] of 122 µM. In test [4], half-maximal inhibition (IC50) was put at 347 µM and the “SI (selectivity index)” value is reported as 0.35. Also, in test [5], the “Effect … with colistin” value is given as “-” and the “Effect … with imipenem” value is reported as “-”.
For the compound `COc1cc([C@H]2Oc3cc([C@H]4Oc5cc(O)cc(O)c5C(=O)[C@@H]4O)ccc3O[C@@H]2CO)ccc1O` [3a, silybin A, reference compound], the “FRAP [Fe2+eq]” value in test [1] was 0.071 ± 0.003 Fe2+eq. In addition, the half-inhibitory concentration (IC50) in test [2] amounted to 53.9 ± 4.9 µM. This compound also registered an IC50 in test [3] of 109 µM. In test [4], the IC50 amounted to 236 µM and the “SI (selectivity index)” value is on record as 0.46. In test [5], the “Effect … with colistin” value is recorded as “-” and the “Effect … with imipenem” value is “-”.
With `COc1cc([C@H]2Oc3cc([C@H]4Oc5c(Br)c(O)c(Br)c(O)c5C(=O)[C@@H]4O)ccc3O[C@@H]2CO)ccc1O` [compound 12, 6,8-dibromosilybin A], the “FRAP [Fe2+eq]” value in test [1] is on record as 0.084 ± 0.004 Fe2+eq. The IC50 in test [2] was 73.9 ± 5.8 µM; in test [3] it was 102 µM; in test [4] it was 304 µM. In addition, the “SI (selectivity index)” value in test [4] is reported as 0.34. The “Effect … with colistin” value in test [5] is “-”. Besides, the “Effect … with imipenem” value in test [5] is “-”.
With `COc1cc([C@@H]2Oc3c(O)cc(-c4oc5c(Br)c(O)cc(O)c5c(=O)c4O)cc3[C@H]2CO)ccc1O` [compound 18, 8-Bromo-2,3-dehydrosilychristin A], the “FRAP [Fe2+eq]” value in test [1] is given as 0.90 Fe2+eq. Also, the IC50 in test [2] was found to be 32.6 ± 1.8 µM. This compound gave an IC50 in test [3] of 66.7 ± 5.6 µM. In test [4], the IC50 is 209 µM and the “SI (selectivity index)” value stood at 0.32. In test [5], the “Effect … with colistin” value is reported as “-” and the “Effect … with imipenem” value was “-”.
In the case of `O=c1c(O)c(-c2ccc(O)c(O)c2)oc2cc(O)cc(O)c12` [compound 2, quercetin, reference compound], the “FRAP [Fe2+eq]” value in test [1] is given as 2.84 ± 0.02 Fe2+eq. Further, the IC50 in test [2] was 14.6 ± 2.1 µM. Also, the IC50 in test [3] is 54.8 ± 2.7 µM. In addition, in test [4], 182 µM corresponded to half-maximal inhibition (IC50) and the “SI (selectivity index)” value was 0.30. Further, in test [5], the “Effect … with colistin” value was “-” and the “Effect … with imipenem” value is given as “-”.
Take `O=C1c2c(O)cc(O)cc2OC(c2ccc(O)c(O)c2)C1O` (stereo not shown) [compound 1, taxifolin, reference compound]: the “FRAP [Fe2+eq]” value in test [1] is 1.45 ± 0.07 Fe2+eq. Also, the IC50 in test [2] was 52.4 ± 1.2 µM. The same compound yielded a concentration for half-maximal inhibition (IC50) in test [3] of 93.8 ± 3.7 µM. Moreover, in test [4], the IC50 stood at 183 µM and the “SI (selectivity index)” value is reported as 0.51. In test [5], the “Effect … with colistin” value was “-” and the “Effect … with imipenem” value is given as “-”.
Consider `COc1cc(C2Oc3cc(-c4oc5c(Br)c(O)cc(O)c5c(=O)c4O)ccc3OC2CO)ccc1O` (stereo not shown) [compound 16, 8-bromo-2,3-dehydrosilybin AB], for which the “FRAP [Fe2+eq]” value in test [1] worked out at 0.19 ± 0.01 Fe2+eq. In addition, the IC50 in test [2] is greater than 25 µM. The IC50 in test [3] was 16.9 ± 0.6 µM. In addition, in test [4], the IC50 turned out to be 39.4 ± 3.4 µM and the “SI (selectivity index)” value is 0.43. In test [5], the “Effect … with colistin” value is reported as “reversion of resistance” and the “Effect … with imipenem” value was “-”. Moreover, the “Colistin-resistant phenotype of P. aeruginosa (result in words)” value in test [5] (colistin breakpoint concentration) is reported as “reversed the colistin-resistant phenotype in P. aeruginosa to a sensitive one”.
As to `COc1cc([C@@H]2Oc3c(O)cc(-c4oc5cc(O)cc(O)c5c(=O)c4O)cc3[C@H]2CO)ccc1O` [compound 6, 2,3-dehydrosilychristin A, reference compound], the “FRAP [Fe2+eq]” value in test [1] is recorded as 1.16 Fe2+eq. The IC50 in test [2] came out at 42.1 ± 2.7 µM. This compound also displayed an IC50 in test [3] of 44.2 ± 2.1 µM. In test [4], the midpoint of inhibition, the IC50, lay at 75.7 ± 8.6 µM and the “SI (selectivity index)” value is listed as 0.58. In test [5], the “Effect … with colistin” value is “-” and the “Effect … with imipenem” value is “-”.
Consider `COc1cc([C@@H]2Oc3cc([C@H]4Oc5cc(O)c(Br)c(O)c5C(=O)[C@@H]4O)ccc3O[C@H]2CO)ccc1O` [compound 13, 6-Bromosilybin B], for which, in test [1], the “FRAP [Fe2+eq]” value was determined as 0.063 ± 0.001 Fe2+eq. In addition, the IC50 in test [2] came to 37 ± 2.4 µM; in test [3], 76.4 ± 1.1 µM; in test [4], 162 µM. Further, in test [4], the “SI (selectivity index)” value came to 0.47. The “Effect … with colistin” value in test [5] was “-”. Further, in test [5], the “Effect … with imipenem” value is reported as “-”.
`COc1cc([C@@H]2Oc3cc([C@H]4Oc5c(Br)c(O)c(Br)c(O)c5C(=O)[C@@H]4O)ccc3O[C@H]2CO)cc(Br)c1O` [compound 22, 6,8,21-tribromosilybin B]: the “FRAP [Fe2+eq]” value in test [1] came to 0.062 ± 0.002 Fe2+eq. The IC50 in test [2] is greater than 100 µM; in test [3] it was 85.8 ± 1.1 µM; in test [4], 183 µM. Also, in test [4], the “SI (selectivity index)” value worked out at 0.47. Further, in test [5], the “Effect … with colistin” value was “-”. Moreover, the “Effect … with imipenem” value in test [5] is given as “-”.
Regarding `COc1cc([C@@H]2Oc3c(O)cc([C@H]4Oc5cc(O)cc(O)c5C(=O)[C@@H]4O)cc3[C@H]2CO)ccc1O` [compound 5, silychristin A, reference compound], the “FRAP [Fe2+eq]” value in test [1] came out at 0.25 ± 0.02 Fe2+eq. Further, the IC50 in test [2] came out at 72.5 ± 5.4 µM; in test [3], 115 µM; in test [4], 205 µM. The “SI (selectivity index)” value in test [4] is recorded as 0.56. Also, the “Effect … with colistin” value in test [5] is reported as “-”. The “Effect … with imipenem” value in test [5] is reported as “-”.
Take `COc1cc(C2Oc3cc(-c4oc5cc(O)cc(O)c5c(=O)c4O)ccc3OC2CO)ccc1O` (stereo not shown) [compound 4, 2,3-dehydrosilybin AB, reference compound]: in test [1], the “FRAP [Fe2+eq]” value came to 0.72 ± 0.03 Fe2+eq. Moreover, the IC50 in test [2] was 27.9 ± 0.5 µM. Moreover, in test [4], the IC50 was determined as 23.5 ± 1.5 µM and the “SI (selectivity index)” value was found to be 0.71. For the same compound, in test [5], the “Effect … with colistin” value is recorded as “-” and the “Effect … with imipenem” value is “-”.
